Measured values from patent publication US11931464B2, “Minimizing agglomeration, aeration, and preserving the coating of pharmaceutical compositions comprising ibuprofen” (Catalent U.K. Swindon Zydis Limited, priority 2019, dated 2024).

Columns and labels:
[1] = Aeration of suspension mixes, height of the foam in the mixing vessel; type: physicochemical; details: for Foam Height: 0% mix: 5 mm
Source text: (§1) The effectiveness of chemical compounds comprising terpene and/or terpinol at minimizing aeration can be determined in part by measuring the particle size of the hydrophobic coated Ibuprofen in pharmaceutical suspension over time. If the chemical compound is effective, the aeration of the suspension will be adequately low and the particle size of the hydrophobic coated Ibuprofen will remain constant or decrease very little over time. If ineffective, the aeration of the suspension will be higher than desired and the particle size of the hydrophobic coated Ibuprofen can decrease more substantially over time. The extent of aeration of the suspension is assessed by measurement of height of the foam in the mixing vessel. The particle size of the functionally-coated particles can be measured using laser diffraction, a particle analyzer such as a Malvern Mastersizer, or any other suitable means for analyzing fine particles. Example 7: A series of suspension mixes were manufactured by mixing the coated Ibuprofen in the matrix solution/suspension containing various levels of limonene, orange flavor, and strawberry flavor. The height of the foam from these suspension is summarized in Table 7, 8, and 9 respectively.

[2] = Particle size of hydrophobic coated Ibuprofen in suspension with liquid flavor or limonene; type: physicochemical; details: 0.25% w/w versus 0.45% w/w and 0.75% w/w, 24 hours
Source text: as §1, with “particles.” for “particles. Example 7: A series of suspension mixes were manufactured by mixing the coated Ibuprofen in the matrix solution/suspension containing various levels of limonene, orange flavor, and strawberry flavor. The height of the foam from these suspension is summarized in Table 7, 8, and 9 respectively.”
Example 8: FIGS. 10, 11, and 12 show the decrease in particle size (d10, d50, and d90, respectively) of hydrophobic coated Ibuprofen in a pharmaceutical suspension comprising various concentrations of liquid orange flavor. A particle size expressed in terms of its d10 means that 10 percent of the particles in a given volume of sample lie below a given particle size. […]

- Aeration of the suspension ([1]; 0.25% w/w): sufficiently low amount of aeration
- Foam Height ([1]; 0.30% w/w in mix with coated Ibuprofen): 1 mm
- Foam Height ([1]; 0.6% w/w in mix with coated Ibuprofen): 1 mm
- Foam Height ([1]; […] w/w in mix with coated Ibuprofen): 2 mm
- Effect on aeration ([1]; level […] w/w and above): minimize the aeration
- Effect on the coating (particle size d10, d50, d90) [2]: much less deleterious effect
Structure (SMILES): C=C(C)[C@H]1CC=C(C)CC1 [limonene]
